Where “and” joins values, the source holds several entries; their conditions need not be identical. Identical values can stand only once. Like-named read-outs stand apart in the source and are kept apart here.
Key:
Type in all cases: biochemical
FIH = target: T1, FIH (Homo sapiens, UniProt Q9NWT6); assay: Time course of FIH-catalyzed peptide hydroxylation; details: 5 μM FIH, 500 μM peptide, atmospheric O2; for substrate hydroxylation (time course): 50 μM Fe(II), 500 μM 2OG, 1 mM L-ascorbate, 50 mM HEPES pH 7.5, 37 °C, MALDI-TOF-MS, triplicate assays
T1 construct: Full-length recombinant FIH, two- and three-consensus ankyrin repeats (2CA and 3CA) were produced as described; His6 (cleaved yes); made in house; host or cells: Escherichia coli BL21(DE3)
Procedure: (§1) Enzymatic assays were conducted as described ([46], [47]). Unless otherwise stated, the assay mixture typically contained 5 μM FIH, 500 μM substrate, 500 μM 2OG, 1 mM L-ascorbate, and 50 μM Fe(NH4)2(SO4)2 or 4 μM PHD2, 100 μM substrate, 300 μM 2OG, 4 mM L-ascorbate, and 50 μM Fe(NH4)2(SO4)2. For HIF-1α CODD19-mer, the background levels of methionine oxidation resulting from assay conditions were subtracted based on non-enzymatic controls ([48]).
(§2) FIGURE 3. PHD2- and FIH-catalyzed hydroxylation of HIF-1/2α peptide substrates. A, time course of HIF-1/2α CODD19-mer peptide hydroxylation; B, time course of HIF-1/2α NODD19-mer peptide hydroxylation. Conditions were as follows: 4 μM PHD2, 100 μM peptide, 50 μM Fe(II), 300 μM 2OG, 1 mM L-ascorbate in HEPES 50 mM (pH 7.5) were incubated at 37 °C at atmospheric O2. C, time course of HIF-1α CAD 19- and 35-mer peptide hydroxylation. D, time course of HIF-2α CAD 19- and 35-mer peptide hydroxylation. Conditions were as follows: 5 μM FIH, 500 μM peptide, 50 μM Fe(II), 500 μM 2OG, 1 mM L-ascorbate in HEPES 50 mM (pH 7.5) were incubated at 37 °C at atmospheric O2. The different hydroxylation levels were analyzed by MALDI-TOF-MS. Error bars, S.D. of triplicate assays.

[1] = target: T2, PHD2 (catalytic domain, residues 181–426) (Homo sapiens, UniProt Q9GZT9); assay: Steady-state kinetics of PHD2-catalyzed HIF-α CODD/NODD hydroxylation (MALDI-TOF-MS); details: 4 mM L-ascorbate, 50 mM HEPES pH 7.5, 37 °C; for kcat^app: PHD2, 4 μM PHD2, 50 μM Fe(II); for Km: 50 μM Fe(II), triplicate assays
T2 construct: The catalytic domain of PHD2 (residues 181–426) was purified as described; made in house
Procedure: as §1
The O2 dependence of FIH-catalyzed reactions was determined by conducting enzymatic assays in an “In vivo 500 Hypoxia Workstation” (Ruskinn) using buffers pre-equilibrated under different pO2 values for 24 h. The O2 dependence of PHD2-catalyzed reactions was determined by conducting enzymatic assays in sealed glass vials with variable N2/O2 contents ([42]). Reactions were stopped by spotting samples onto a matrix-assisted laser desorption/ionization-time of flight mass spectrometry (MALDI-TOF-MS) target plate and immediately mixing with α-cyano-4-hydroxycinnamic acid matrix. Hydroxylation levels were assessed by MALDI-TOF-MS as described ([46]).

PHD2 [2] = target: T3, PHD2 (Homo sapiens, UniProt Q9GZT9); assay: Stopped-flow UV-visible spectroscopy, PHD2·Fe(II)·2OG·substrate + O2; details: anaerobic 0.8 mM PHD2, 1 mM peptide, 5 mM 2OG, 50 mM HEPES pH 7.5, mixed 1:1 with O2-saturated buffer at 5 °C, double exponential fit; for Stopped-flow, 520 nm (PHD2) kfall phase: traces average of triplicate
T3 construct: The catalytic domain of PHD2 (residues 181–426) was purified as described; made in house
Procedure: Stopped-flow UV-visible spectroscopy experiments were performed as described previously ([32], [42]). […] The reaction was observed over 1000 s using a photodiode array detector, and kinetic traces were analyzed using Origin version 8.51 software. Data were fitted with a double exponential function (y = A1 × exp(−kriset) + A2 × exp(−kfallt) + y0). The A1, A2, and y0 parameters were restricted with upper limits to match the observed amplitude/offset changes.
Previously reported pre-steady-state kinetic studies on PHD2 focused on its reaction with CODD HIF-1α 19-mer peptide ([38], [42]); there is no reported information on the rates of PHD2 reaction with O2 in the presence of NODD HIF-1α or HIF-2α substrates. To ascertain whether a slow reaction with O2 under pre-steady-state conditions is common to PHD2-catalyzed hydroxylation of both CODD and NODD, we investigated the reaction of PHD2 with NODD substrates in comparison with CODD for both HIF-1α and HIF-2α. Pre-steady-state reactions of PHD2 were initiated by rapid mixing of anaerobic PHD2·Fe(II)·2OG·HIF-α complexes with O2-saturated buffer at 5 °C. Reactions were initially observed using a photodiode array detector, and difference spectra (in comparison with the reaction with O2-free buffer) were subsequently analyzed.
FIGURE 5. Pre-steady-state kinetics of PHD2-catalyzed HIF-1/2α hydroxylation. […] B, stopped-flow kinetic traces at 520 nm showing absorbance changes in control experiments: Fe(II) only, mix of Fe(II) and 2OG, reaction of PHD2·Fe(II)·2OG complex with O2 in the absence of CODD; reaction of PHD2·Fe(II)·N-oxalylglycine (NOG)·CODD complex with O2. N-Oxalylglycine is an inhibitor of 2OG oxygenases. […] The kinetic traces represent the average of triplicate assays. E, HIF-1/2α peptide hydroxylation, as determined by MALDI-TOF-MS. Reactions were quenched with 1% CF3CO2H at defined time points.

PHD2 [3] = target: T3, PHD2; assay: Time course of PHD2-catalyzed peptide hydroxylation; details: 4 μM PHD2, 100 μM peptide, 50 μM Fe(II), 300 μM 2OG, 1 mM L-ascorbate, 50 mM HEPES pH 7.5, 37 °C, atmospheric O2; MALDI-TOF-MS; triplicate assays
Procedure: as §1, §2

[4] = PHD2, 4 μM PHD2, peptide varied, 300 μM 2OG, read-out: Km^app(peptide)
[5] = PHD2 with the named substrate, 4 μM PHD2, 2OG varied, read-out: Km^app(2OG)

T1 sequence (Q9NWT6 whole entry): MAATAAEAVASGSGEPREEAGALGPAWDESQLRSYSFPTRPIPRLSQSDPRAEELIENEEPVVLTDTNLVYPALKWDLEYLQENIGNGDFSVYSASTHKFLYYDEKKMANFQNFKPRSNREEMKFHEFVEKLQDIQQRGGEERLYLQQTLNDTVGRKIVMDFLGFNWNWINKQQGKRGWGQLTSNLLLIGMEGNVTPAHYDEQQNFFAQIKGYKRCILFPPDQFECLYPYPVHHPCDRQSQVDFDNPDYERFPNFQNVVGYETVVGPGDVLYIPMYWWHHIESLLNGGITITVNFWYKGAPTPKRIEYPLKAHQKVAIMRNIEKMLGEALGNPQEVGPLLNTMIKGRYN
T2 sequence (Q9GZT9 181-426): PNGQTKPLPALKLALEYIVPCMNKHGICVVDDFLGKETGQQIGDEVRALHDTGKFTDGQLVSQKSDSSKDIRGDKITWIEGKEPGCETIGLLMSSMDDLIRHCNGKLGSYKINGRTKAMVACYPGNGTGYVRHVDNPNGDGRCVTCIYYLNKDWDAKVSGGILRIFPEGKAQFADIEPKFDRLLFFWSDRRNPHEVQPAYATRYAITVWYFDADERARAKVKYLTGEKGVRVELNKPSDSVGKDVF
T3 sequence (Q9GZT9 181-426): as above

| Sequence | substrate hydroxylation (time course) (FIH) | kcat^app [1] | Km [1, 4] | Km [1, 5] | Stopped-flow, 520 nm (PHD2) krise phase (PHD2 [2]) | Stopped-flow, 520 nm (PHD2) kfall phase (PHD2 [2]) | substrate hydroxylation after 15 min (PHD2 [3]) | increase in activity on increasing peptide length (19-mer to 35-mer) (FIH; standard conditions, 37 °C) | Stopped-flow, 520 nm (PHD2) kfall phase (PHD2 [2]; listed as NODD HIF-2α) |
| --- | --- | --- | --- | --- | --- | --- | --- | --- | --- |
| DESGLPQLTSYDCEVNAPIQGSRNLLQGEELLRAL [HIF-1α CAD35-mer] | nearly complete substrate hydroxylation | – | – | – | – | – | – | – | – |
| ELDLETLAPYIPMDGEDFQ [HIF-2α CODD, 19-mer fragment (523–541) of the HIF-2α C-terminal oxygen-dependent degradation domain, PHD2 substrate] | – | 0.069 ± 0.006 s⁻¹ | 34 ± 10 µM | 9 ± 2 µM | 0.027 ± 0.001 s⁻¹ | 0.450 ± 0.010 s⁻¹ | 90% | – | – |
| ESYLLPELTRYDCEVNVPVLGSSTLLQGGDLLRAL [HIF-2α CAD35-mer] | < 30% | – | – | – | – | – | – | 10% | – |
| EELAQLAPTPGDAIISLDF [HIF-2α NODD, 19-mer fragment (398–416) of the HIF-2α N-terminal oxygen-dependent degradation domain, PHD2 substrate] | – | 0.013 ± 0.001 s⁻¹ | 50 ± 8 µM | 17 ± 5 µM | 0.003 ± 0.001 s⁻¹ | – | 20% | – | 0.195 ± 0.003 s⁻¹ and 0.195 ± 0.009 s⁻¹ |
